Marks after values point to notes of the source that are not given here.
Experiments:
freely-moving rats [1] = experiment: Blood pressure and heart rate measurement after morphine in freely-moving rats; conditions: for DBP, mmHg: Post-drug, % change from Pre (cumulative) / HR/MAP, mmHg/beats/min: Post-drug, % change from Pre (cumulative) / Heart rate (HR), beats/min: Post-drug, % change from Pre (cumulative) / MAP, mmHg: Post-drug, % change from Pre (cumulative) / SBP, MmHg: Post-drug % change from Pre (cumulative): 15-30 min post-morphine; for DBP, mmHg: Post-drug, % change from morphine (cumulative) / HR/MAP, mmHg/beats/min: Post-drug, % change from morphine (cumulative) / Heart rate (HR), beats/min: Post-drug % change from morphine (cumulative) / MAP, mmHg: Post-drug, % change from morphine (cumulative) / SBP, MmHg: Post-drug, % change from morphine (cumulative): final 15 min morphine value as pre-value
freely-moving rats [2] = experiment: Arterial blood gases, pH and A-a gradient after morphine in freely-moving rats
freely-moving rats [3] = experiment: Tissue O2 saturation (SpO2) analysis after morphine in freely-moving rats; conditions: for Cumulative change in sPO2: Post-drug, % change from morphine: 15 min post-morphine value as pre-value
[4] = system: isoflurane-anesthetized rats; conditions: rat, in vivo
conscious rats = system: conscious rats; set-up: species or system Sprague-Dawley rats; conditions: rat, in vivo
[5] = Tempol 60 mg/kg IV 15 min after morphine 10 mg/kg IV
[6] = Tempol 100 mg/kg IV 15 min after morphine 10 mg/kg IV
[7] = Tempol 60 mg/kg IV after morphine 10 mg/kg IV, FIG. 14

SMILES: CN1CC[C@]23c4c5ccc(O)c4O[C@H]2[C@@H](O)C=C[C@H]3[C@H]1C5 [Morphine, morphine]
- MAP, change elicited by morphine (freely-moving rats [1]; morphine 10 mg/kg IV, FIG. 18): relatively minor initial decreases
- heart rate, change elicited by morphine (freely-moving rats [1]; morphine 10 mg/kg IV, FIG. 18): substantial decreases
- ratio of heart rate/MAP (index of baroreceptor heart rate reflex activity), change elicited by morphine (freely-moving rats [1]; morphine 10 mg/kg IV, FIG. 20): somewhat minor reductions
- pCO2, change elicited by morphine (freely-moving rats [2]; morphine 10 mg/kg IV, FIG. 14): equally pronounced increases
- pH, pO2 and sO2, change elicited by morphine (freely-moving rats [2]; morphine 10 mg/kg IV, FIG. 14): pronounced decreases
- A-a gradient, change elicited by morphine (freely-moving rats [2]; morphine 10 mg/kg IV, FIG. 15): rise
- SpO2, change elicited by morphine (freely-moving rats [3]; morphine 10 mg/kg IV, FIG. 17): pronounced and long-lasting decrease

SMILES: CC1(C)CC(O)CC(C)(C)N1[O] [Tempol, 4-hydroxy-2,2,6,6-tetramethylpiperidine-N-oxyl]
- DBP, mmHg: Post-drug, % change from Pre (cumulative) (freely-moving rats [1]; [5]): −16.7 ± 1.7 %
- HR/MAP, mmHg/beats/min: Post-drug, % change from Pre (cumulative) (freely-moving rats [1]; [5]): +19.2 ± 12.7 %
- Heart rate (HR), beats/min: Post-drug, % change from Pre (cumulative) (freely-moving rats [1]; [5]): +1.8 ± 7.1 %
- MAP, mmHg: Post-drug, % change from Pre (cumulative) (freely-moving rats [1]; [5]): −13.7 ± 1.7 %
- SBP, MmHg: Post-drug % change from Pre (cumulative) (freely-moving rats [1]; [5]): −9.5 ± 1.9 %
- MAP, change elicited by Tempol after morphine (freely-moving rats [1]; Tempol 60 mg/kg IV 15 min after morphine 10 mg/kg IV, FIG. 18): minor short-lived fall
- DBP, mmHg: Post-drug, % change from morphine (cumulative) (freely-moving rats [1]; [5]): −13.9 ± 2.4*^,† %
- HR/MAP, mmHg/beats/min: Post-drug, % change from morphine (cumulative) (freely-moving rats [1]; [5]): +53.3 ± 13.7*^,† %
- Heart rate (HR), beats/min: Post-drug % change from morphine (cumulative) (freely-moving rats [1]; [5]): +31.2 ± 10.3*^,† %
- MAP, mmHg: Post-drug, % change from morphine (cumulative) (freely-moving rats [1]; [5]): −13.2 ± 1.8*^,† %
- SBP, MmHg: Post-drug, % change from morphine (cumulative) (freely-moving rats [1]; [5]): −11.3 ± 1.6*^,† %
- DBP, mmHg: Post-drug, % change from Pre (cumulative) (freely-moving rats [1]; [6]): −19.6 ± 2.0 %
- HR/MAP, mmHg/beats/min: Post-drug, % change from Pre (cumulative) (freely-moving rats [1]; [6]): +18.3 ± 3.9*7%
- Heart rate (HR), beats/min: Post-drug, % change from Pre (cumulative) (freely-moving rats [1]; [6]): −6.8 ± 3.0*^,† %
- MAP, mmHg: Post-drug, % change from Pre (cumulative) (freely-moving rats [1]; [6]): −19.4 ± 1.5*^,† %
- SBP, MmHg: Post-drug % change from Pre (cumulative) (freely-moving rats [1]; [6]): −18.8 ± 1.2*^,† %
- MAP, change elicited by Tempol after morphine (freely-moving rats [1]; Tempol 100 mg/kg IV 15 min after morphine 10 mg/kg IV, FIG. 18): prompt and sustained decrease
- DBP, mmHg: Post-drug, % change from morphine (cumulative) (freely-moving rats [1]; [6]): −3.2 ± 4.1 %
- HR/MAP, mmHg/beats/min: Post-drug, % change from morphine (cumulative) (freely-moving rats [1]; [6]): +43.0 ± 7.1*^,† %
- Heart rate (HR), beats/min: Post-drug % change from morphine (cumulative) (freely-moving rats [1]; [6]): +37.0 ± 9.9*^,† %
- MAP, mmHg: Post-drug, % change from morphine (cumulative) (freely-moving rats [1]; [6]): −5.6 ± 3.2 %
- SBP, MmHg: Post-drug, % change from morphine (cumulative) (freely-moving rats [1]; [6]): −9.1 ± 2.3*^,† %
- morphine-induced bradycardia, effect of Tempol (freely-moving rats [1]; Tempol 60 and 100 mg/kg IV 15 min after morphine 10 mg/kg IV, FIG. 18): prompt and sustained reversal
- heart rate/MAP ratios, change elicited by Tempol after morphine (freely-moving rats [1]; Tempol 60 or 100 mg/kg IV, especially the 100 mg/kg dose, after morphine 10 mg/kg IV, FIG. 20): rapid and sustained increase
- effects of morphine on pH and sO2, effect of Tempol (freely-moving rats [2]; [7]): not reaching significance
- negative effects of morphine on pCO2 and pO2, effect of Tempol (freely-moving rats [2]; [7]): reversed the negative effects
- morphine-induced rise in A-a gradient, effect of Tempol (freely-moving rats [2]; Tempol 60 mg/kg IV after morphine 10 mg/kg IV, FIG. 15 top panel): not affected
- A-a gradient, effect of Tempol (freely-moving rats [2]; Tempol 100 mg/kg IV after morphine 10 mg/kg IV, 5 min post-administration, FIG. 15 bottom panel): pronounced decrease
- negative effects of morphine on pH, pCO2, pO2 and sO2, effect of Tempol (freely-moving rats [2]; Tempol 100 mg/kg IV after morphine 10 mg/kg IV, FIG. 16): sustained reversal
- frequency of breathing (Freq), change elicited by Tempol [4]: minimal changes
- heart rate (HR), change elicited by Tempol [4]: somewhat minor but sustained decreases
- mean (MAP), diastolic (DBP) and systolic (SBP) arterial blood pressures, change elicited by Tempol [4]: pronounced dose-dependent decreases
- tidal volume (TV) and minute ventilation (MV), change elicited by Tempol [4]: somewhat dose-dependent (relatively minor but sustained) increases
- total responses (all time points summed) in MAP, DBP, SBP and HR elicited by Tempol [4]: significant decreases
- total responses (all time points summed) in TV and MV elicited by Tempol [4]: significant increases
- Cumulative change in sPO2: Post-drug, % change from morphine (freely-moving rats [3]; [5]): +5.0 ± 0.6*^,† %
- SpO2, effect of Tempol after morphine (freely-moving rats [3]; Tempol 60 mg/kg IV 15 min after morphine 10 mg/kg IV, FIG. 17): minor short-lived rise
- Cumulative change in sPO2: Post-drug, % change from morphine (freely-moving rats [3]; [6]): +12.4 ± 2.0*^,† %
- negative effects of morphine on tissue oxygenation (SpO2), effect of Tempol (freely-moving rats [3]; Tempol 100 mg/kg IV 15 min after morphine 10 mg/kg IV, FIG. 17): prompt and sustained reversal
- tail-flick latencies, effect of Tempol alone (conscious rats): no effects
